Measured values reported in article PMC3422259, “Additive Mixture Effects of Estrogenic Chemicals in Human Cell-Based Assays Can Be Influenced by Inclusion of Chemicals with Differing Effect Profiles” (PLoS ONE, 2012).
Where two headings read alike, the source gives them in different places.

Columns and labels:
[1] = system: T47D-KBluc cells; test: cells; design: Emax: dose or concentration left out as unconfirmed
Experimental: T47D-KBluc cells were obtained from the ATCC and the protocol established by the depositing authors was followed. Cells were routinely grown in RPMI media (with 10% foetal calf serum (FCS)). For seven days prior to experiments, cells were maintained in low estrogen conditions by the use of pre-assay media (RPMI, 10% charcoal-dextran stripped FCS, no antibiotics). For experiments, cells were seeded in white polystyrene 96 well plates at a density of 10,000 cells/well and allowed to attach for 24 hours before removal of media, and application of test chemicals. Test chemicals were dissolved in ethanol to give stock solutions of millimolar concentrations. Test and control solutions were obtained by dilution of ethanolic stocks in dosing media (phenol red-free RPMI, 5% charcoal-dextran stripped FCS, no antibiotics), and in all cases the final concentration of ethanol was 0.5%. The positive control was 1 nM estradiol. Positive and vehicle controls were run as eight replicate wells per plate, and compounds were tested in a dilution series comprising eight concentrations, each concentration tested in triplicate. As recommended by Wilson et al. two additional controls were also included on each plate: 1) vehicle control plus an antiestrogen, ICI 182,780 (1 µM), and 2) positive control plus ICI 182,780 (1 µM). […] A crude measure of toxicity was provided by comparing values for treatments that were not positive, with the value of the vehicle control. […] 24 hours after application of test and control solutions, a volume of Steady-Glo assay reagent (Promega) equal to the volume of culture media was added and plates were incubated for ten minutes, with shaking, to allow for cell lysis. Plates were then loaded into a plate reader (FLUOstar Optima, BMG Labtech) and incubated for a further ten minutes in the dark, followed by measurement of luminescence. To reduce variation, the temperature of the plate reader chamber was maintained at 27°C throughout.
(§1) Experiments were performed on different days meaning that results for different dilution series and different batches of the test chemicals were obtained on different days. Each single chemical was tested in three or more independent experiments. Use of normalisation meant that data from different experiments could be reliably combined and compared, as discussed previously. Data was expressed relative to the positive control, rather than as fold change from the vehicle response, for two reasons.
Effect concentrations (ECx) were defined relative to the effects of the estradiol concentration used as the positive control, for example EC50 is the concentration producing an effect of 50% of the positive control (estradiol, 1 nM (ERLUX) or 25 nM (ESCREEN)).
(§2) Results from regression analysis for each test chemicals were used to predict the CA effect for fixed-ratio mixtures designed on 1) equi-effective concentrations (balanced design), 2) possible human serum levels (non-balanced design). The original mathematical formulation of CA that defines for a mixture composed of n components with concentration c1 of the first component, c2 of the second component, and cn for the n-th component a combination effect X is [drawing 1] (1) Here, ECX1, ECX1 …, ECXn are the concentrations of the individual components that on their own produce the same effect X as the mixture, [15] The quotients cn/ECXn are called toxic units and scale all compounds in the mixture relative to their toxicity. They can be interpreted as the contribution of the compound to the total mixture concentration that is expected to produce the mixture effect X. According to equation 1, a mixture effect for a pre-defined effect level X is described only implicitly.

[2] = system: MCF-7 cells; test: Estrogenicity assay, mitogenic endpoint (ESCREEN); design: Emax: dose or concentration left out as unconfirmed
Experimental: The ESCREEN assay was performed using cloned MCF-7 cells (described in [6], gifted from A. Soto, Boston) and the established ESCREEN method was followed using an adapted 96-well format. Cells were cultured in DMEM (5% FCS). For experiments, cells were seeded in clear polystyrene 96 well plates at a density of 2,500 cells/well and allowed to attach for 24 hours before washing with rinse media (phenol red-free DMEM, no supplements). […] Test chemicals were dissolved in ethanol to give stock solutions of millimolar concentrations. Test and control solutions were diluted prior to application in dosing media (phenol red free DMEM, 10% charcoal-dextran stripped FCS). The final concentration of ethanol was 0.5% in test and control wells. […] At all stages, media removal from cells was carried out gently and in a controlled fashion by use of an electronic multichannel pipette set to the lowest speed possible. Controls were run as eight replicate wells per plate and compounds were tested in a dilution series comprising eight concentrations, each concentration tested in two replicate wells per plate. The plate layout was designed to reduce variation due to evaporation and spreading of test chemicals, and had been previously optimised in the laboratory. After application of test solutions, plates were incubated for 120 hours before fixation with 10% trichloroacetic acid and sulforhodamine B (SRB) staining to measure protein and allow the indirect quantification of cell number.
as §1
as §2, with “implicitly. However, if the individual concentrations ci are expressed as relative fractions pi to the total mixture concentration ECxMix, then equation 1 can be re-arranged to [drawing 2] (2) which allows the direct calculation of the mixture concentration that is expected to produce the mixture effect X. To form a prediction curve, equation 2 is iterated through for various effect levels resulting in sets of effects and their associated predicted mixture concentration which are then plotted to produce a graph of the effect prediction.” for “implicitly.”
Both equations 1 and 2 require knowledge of the concentration of each mixture component that on its own produces the effect magnitude under consideration. For this reason, these equations cannot be used for predicting mixture effects that exceed the maximal effect of the least efficacious component, because those effect concentrations cannot be defined.

[3] = Homo sapiens, read-out: Concentration Response Function θ^∧ max
[4] = Homo sapiens, read-out: Supramaximal response, of estradiol maxima
[5] = Homo sapiens, MCF7, read-out: Concentration Response Function θ^∧ max
[6] = Homo sapiens, MCF7, read-out: Maxima at effect levels relative to that of estradiol (submaximal response)

## CCCCOC(=O)c1ccc(O)cc1 [Butylparaben]
[1]; Homo sapiens, 24 h
  EC10: 497 nM
  EC25: 881 nM
[1]; [3]
  Emax: 331%
[1]; [4]
  Emax: 300%
[2]; Homo sapiens, MCF7, 120 h
  EC10: 571 nM
  EC25: 1320 nM
[2]; [5]
  Emax: 101%

## Cc1ccc(/C=C2/C(=O)C3(C)CCC2C3(C)C)cc1 (centres unmarked) [4MBC, 4-methylbenzylidene camphor]
[1]; Homo sapiens, 24 h
  EC10: 1810 nM
  EC25: 5000 nM
[1]; [3]
  Emax: 82%
[2]; Homo sapiens, MCF7, 120 h
  EC10: 899 nM
  EC25: 2210 nM
[2]; [5]
  Emax: 63%
[2]; [6]
  Emax: 60 to 70%

## c1ccc2c(c1)-c1cccc3cccc-2c13 [Fluoranthene]
[1]; Homo sapiens, 24 h
  EC10: 60000 nM
[1]; [3]
  Emax: 16%
[2]; Homo sapiens, MCF7, 120 h
  EC10: 33900 nM
  EC25: 88500 nM
[2]; [5]
  Emax: 38%

## Tonalide (AHTN)
[1]; ERLUX, concentration producing 10% effect relative to positive control 1 nM estradiol, 24 hours
  EC10: 3610 nM
[1]; ERLUX, concentration producing 25% effect relative to positive control 1 nM estradiol, 24 hours
  EC25: 206000 nM
[1]; ERLUX, estimated maximal model asymptote, effect relative to positive control (1 nM estradiol)
  Concentration Response Function θ^∧ max: 0.28
[2]; ESCREEN, concentration provoking 10% effect relative to positive control 25 nM estradiol, 120 hours
  EC10: 1970 nM
[2]; ESCREEN, concentration provoking 25% effect relative to positive control 25 nM estradiol, 120 hours
  EC25: 6130 nM
[2]; ESCREEN, estimated maximal model asymptote, effect relative to positive control (25 nM estradiol)
  Concentration Response Function θ^∧ max: 0.46

## CC1COCc2cc3c(cc21)C(C)(C)C(C)C3(C)C (centres unmarked) [Galaxolide, Galaxolide (HHCB)]
[1]; Homo sapiens, 24 h
  EC10: 3930 nM
  EC25: 7730 nM
[1]; [3]
  Emax: 91%
[2]; Homo sapiens, MCF7, 120 h
  EC10: 5390 nM
  EC25: 12300 nM
[2]; [5]
  Emax: 69%

## C[C@]12CC[C@@H]3c4ccc(O)cc4CC[C@H]3[C@@H]1CC[C@@H]2O [Estradiol, reference compound]
[1]; Homo sapiens, 24 h
  EC10: 0.000653 nM
  EC25: 0.00145 nM
[1]; [3]
  Emax: 123%
[2]; Homo sapiens, MCF7, 120 h
  EC10: 0.00112 nM
  EC25: 0.00312 nM
[2]; [5]
  Emax: 133%

## C#C[C@]1(O)CC[C@H]2[C@@H]3CCc4cc(O)ccc4[C@H]3CC[C@@]21C [EE2, Ethinyl estradiol, reference compound]
[1]; Homo sapiens, 24 h
  EC10: 0.000651 nM
  EC25: 0.00132 nM
[1]; [3]
  Emax: 105%
[2]; Homo sapiens, MCF7, 120 h
  EC10: 0.000635 nM
  EC25: 0.00181 nM
[2]; [5]
  Emax: 114%

## CCCOC(=O)c1ccc(O)cc1 [Propylparaben]
[1]; Homo sapiens, 24 h
  EC10: 1300 nM
  EC25: 2210 nM
[1]; [3]
  Emax: 260%
[2]; Homo sapiens, MCF7, 120 h
  EC10: 997 nM
  EC25: 2160 nM
[2]; [5]
  Emax: 109%

## OC[C@H](Cc1cccc(O)c1)[C@H](CO)Cc1cccc(O)c1 [Enterodiol]
[2]; Homo sapiens, MCF7, 120 h
  EC10: 3850 nM
  EC25: 7450 nM
[2]; [5]
  Emax: 45%

## O=C1C[C@@H](c2ccc(O)cc2)Oc2cc(O)cc(O)c21 [Naringenin]
[1]; Homo sapiens, 24 h
  EC10: 310 nM
  EC25: 506 nM
[1]; [3]
  Emax: 114%
[2]; Homo sapiens, MCF7, 120 h
  EC10: 360 nM
  EC25: 833 nM
[2]; [5]
  Emax: 110%

## O=c1oc2cc(O)ccc2c2oc3cc(O)ccc3c12 [Coumestrol]
[1]; Homo sapiens, 24 h
  EC10: 1.58 nM
  EC25: 3.42 nM
[1]; [3]
  Emax: 101%
[2]; Homo sapiens, MCF7, 120 h
  EC10: 1.56 nM
  EC25: 5 nM
[2]; [5]
  Emax: 131%

## CC(C)(c1ccc(O)cc1)c1ccc(O)cc1 [Bisphenol A]
[1]; Homo sapiens, 24 h
  EC10: 155 nM
  EC25: 258 nM
[1]; [3]
  Emax: 144%
[1]; [4]
  Emax: 150%
[2]; Homo sapiens, MCF7, 120 h
  EC10: 45.2 nM
  EC25: 81.8 nM
[2]; [5]
  Emax: 121%

## COC(=O)c1ccc(O)cc1 [Methylparaben]
[1]; Homo sapiens, 24 h
  EC10: 8140 nM
  EC25: 17100 nM
[1]; [3]
  Emax: 206%
[2]; Homo sapiens, MCF7, 120 h
  EC10: 7640 nM
  EC25: 18000 nM
[2]; [5]
  Emax: 79%

## O=c1c(-c2ccc(O)cc2)coc2cc(O)cc(O)c12 [Genistein]
[1]; Homo sapiens, 24 h
  EC10: 12.4 nM
  EC25: 19.6 nM
[1]; [3]
  Emax: 148%
[1]; [4]
  Emax: 200%
[2]; Homo sapiens, MCF7, 120 h
  EC10: 4.61 nM
  EC25: 13.6 nM
[2]; [5]
  Emax: 93%

## O=C1OC[C@H](Cc2cccc(O)c2)[C@H]1Cc1cccc(O)c1 [Enterolactone]
[1]; Homo sapiens, 24 h
  EC10: 3770 nM
  EC25: 8180 nM
[1]; [3]
  Emax: 104%
[2]; Homo sapiens, MCF7, 120 h
  EC10: 4150 nM
  EC25: 7220 nM
[2]; [5]
  Emax: 139%

## Brc1ccc(Oc2c(Br)cc(Br)cc2Br)c(Br)c1 [BDE100, Brominated diphenyl ether-100]
[1]; Homo sapiens, 24 h
  EC10: 5360 nM
  EC25: 12800 nM
[1]; [3]
  Emax: 172%
[2]; Homo sapiens, MCF7, 120 h
  EC10: 704 nM
  EC25: 2410 nM
[2]; [5]
  Emax: 71%

## COc1ccc(C(=O)c2ccccc2)c(O)c1 [Benzophenone-3]
[1]; Homo sapiens, 24 h
  EC10: 2270 nM
  EC25: 4610 nM
[1]; [3]
  Emax: 177%
[1]; [4]
  Emax: 150%
[2]; Homo sapiens, MCF7, 120 h
  EC10: 1300 nM
  EC25: 4310 nM
[2]; [5]
  Emax: 63%
[2]; [6]
  Emax: 60 to 70%
